Experimental data: ChEMBL document CHEMBL1687697 (ACS Med Chem Lett, 2010)
Active and inactive are the calls of the source. No cut-off for these calls is given here.

Target: Signal transducer and activator of transcription 3 (Homo sapiens) (UniProt P40763)
Test: Inhibition of STAT3 in human HeLa cells after 24 hrs by luciferase reporter gene assay
Assay type: cell-based

Chain of Signal transducer and activator of transcription 3 (Homo sapiens) (P40763 whole entry): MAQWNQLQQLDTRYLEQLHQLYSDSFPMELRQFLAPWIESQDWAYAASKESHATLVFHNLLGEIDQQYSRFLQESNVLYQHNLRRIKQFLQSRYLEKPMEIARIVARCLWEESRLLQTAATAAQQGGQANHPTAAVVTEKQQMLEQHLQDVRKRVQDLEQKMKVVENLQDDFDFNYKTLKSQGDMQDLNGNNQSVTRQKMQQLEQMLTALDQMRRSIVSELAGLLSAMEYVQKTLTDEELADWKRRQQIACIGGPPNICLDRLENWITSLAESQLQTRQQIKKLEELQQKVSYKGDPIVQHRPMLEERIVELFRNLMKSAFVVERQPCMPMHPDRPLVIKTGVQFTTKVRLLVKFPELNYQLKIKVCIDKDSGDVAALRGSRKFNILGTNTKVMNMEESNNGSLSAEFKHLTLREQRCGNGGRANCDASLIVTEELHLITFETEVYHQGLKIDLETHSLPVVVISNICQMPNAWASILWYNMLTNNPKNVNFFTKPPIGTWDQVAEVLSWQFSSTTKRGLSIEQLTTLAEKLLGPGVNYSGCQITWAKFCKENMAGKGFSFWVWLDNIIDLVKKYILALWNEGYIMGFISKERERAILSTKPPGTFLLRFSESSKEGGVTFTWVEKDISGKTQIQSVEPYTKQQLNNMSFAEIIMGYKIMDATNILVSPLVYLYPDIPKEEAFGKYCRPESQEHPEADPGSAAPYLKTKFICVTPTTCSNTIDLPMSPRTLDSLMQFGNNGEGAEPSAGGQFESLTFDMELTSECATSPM

inhibition: inactive
SMILES: COc1ccc(-c2cc(=O)c3c(O)cc(O[C@@H]4O[C@H](CO[C@@H]5O[C@@H](C)[C@H](O)[C@@H](O)[C@H]5O)[C@@H](O)[C@H](O)[C@H]4O)cc3o2)cc1O
